Experiments:
HER2 INS YVMA = target: T1, HER2 INS YVMA (Homo sapiens, UniProt P04626, INS775YVMA); experiment: Lance Kinase Activity Assay, HER2 INS YVMA (Her2 Exon 20 INSYVMA Lance); format: biochemical; settings: biochemical Lance assay
T1 construct: purchased DPF
In short: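 IC50 was fitted to sigmoidal curves of TR-FRET signal (665 and 615 nm emission after 340 nm excitation) from an Eu anti-phospho antibody binding the phosphorylated ULight peptide. The ATP-started reaction ran 1 h at RT and was then quenched with 10 mM EDTA plus antibody for a further 1 h. Compounds were tested as 8-point, 3-fold dilutions.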

[1] = Metabolic stability in mouse liver microsomes without cofactor NADPH; format: in vitro ADME; settings: 3 μM test compound, mouse liver microsomes, without NADPH, 50 min, 37° C., LC-MS/MS
In short: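 Cofactor-free incubation: no NADPH added to mouse liver microsomes, with compound at 3 μM and 37° C. Remaining parent was quantified by LC-MS/MS at time points up to 50 minutes to track depletion.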

[2] = target: EGFR Exon 20 INSNPH Ba/F3 (Homo sapiens, UniProt P00533, DUP771-773, cells depend on it); experiment: EGFR Exon 20 INSNPH Ba/F3 CellTiter-Glo; format: cell-based; settings: CellTiter-Glo, 72 h, read-out: EGFR Exon 20 INSNPH Ba/F3 CTG IC50
Chain of EGFR Exon 20 INSNPH Ba/F3 (P00533 with tags, fused parts or gaps DUP771-773): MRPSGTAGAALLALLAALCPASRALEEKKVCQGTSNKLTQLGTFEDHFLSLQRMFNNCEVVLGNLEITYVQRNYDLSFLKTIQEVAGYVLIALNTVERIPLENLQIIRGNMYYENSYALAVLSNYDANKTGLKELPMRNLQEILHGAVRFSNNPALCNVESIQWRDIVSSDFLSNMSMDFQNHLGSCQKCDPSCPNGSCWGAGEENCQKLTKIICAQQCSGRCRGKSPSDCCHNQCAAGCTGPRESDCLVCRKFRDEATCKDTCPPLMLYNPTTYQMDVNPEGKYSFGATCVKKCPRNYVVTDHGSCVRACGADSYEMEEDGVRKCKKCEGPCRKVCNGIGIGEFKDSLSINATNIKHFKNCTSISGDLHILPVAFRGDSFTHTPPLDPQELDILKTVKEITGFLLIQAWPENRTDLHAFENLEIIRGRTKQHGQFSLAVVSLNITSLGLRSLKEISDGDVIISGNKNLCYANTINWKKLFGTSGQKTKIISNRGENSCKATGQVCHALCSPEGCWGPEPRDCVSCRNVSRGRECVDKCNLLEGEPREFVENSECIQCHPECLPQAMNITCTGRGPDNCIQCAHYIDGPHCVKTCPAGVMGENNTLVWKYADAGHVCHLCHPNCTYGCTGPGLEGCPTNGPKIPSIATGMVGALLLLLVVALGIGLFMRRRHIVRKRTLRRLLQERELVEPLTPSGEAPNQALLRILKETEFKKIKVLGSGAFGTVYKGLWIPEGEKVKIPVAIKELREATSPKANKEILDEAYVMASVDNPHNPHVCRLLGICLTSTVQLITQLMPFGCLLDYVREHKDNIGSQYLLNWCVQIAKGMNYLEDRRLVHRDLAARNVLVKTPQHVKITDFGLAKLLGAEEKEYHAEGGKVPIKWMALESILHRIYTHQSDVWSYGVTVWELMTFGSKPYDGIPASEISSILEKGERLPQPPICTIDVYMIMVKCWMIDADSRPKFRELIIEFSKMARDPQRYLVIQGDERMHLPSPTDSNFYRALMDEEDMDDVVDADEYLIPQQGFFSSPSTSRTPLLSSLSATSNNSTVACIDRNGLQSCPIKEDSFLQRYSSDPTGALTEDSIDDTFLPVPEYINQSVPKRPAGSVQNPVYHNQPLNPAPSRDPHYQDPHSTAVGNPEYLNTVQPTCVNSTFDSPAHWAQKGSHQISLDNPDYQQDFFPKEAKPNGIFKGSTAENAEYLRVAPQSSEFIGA
In short: (§1)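 IC50 values come from dose–response fits of CellTiter-Glo luminescence in Ba/F3 cells treated with compound for 72 h at 37 °C, 5% CO2. Vehicle (DMSO) and 10 μM staurosporine wells set the assay window, with Z′ ≥0.5 required.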

A431 = A431 CellTiter-Glo; format: cell-based; settings: Homo sapiens, A-431; 72 h compound incubation; read-out: A431 CTG IC50
In short: (§2)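 In this viability format, compound-treated cells sit 72 h at 37° C. before ATP content is quantified by luminescence, and IC50 is taken from the fitted dose-response curve.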

EGFR T790ML858R = EGFR T790ML858R (Homo sapiens, UniProt P00533, L858R/T790M); experiment: EGFR T790ML858R Lance assay; format: biochemical
Chain of EGFR T790ML858R (P00533 25-1210 T790M/L858R): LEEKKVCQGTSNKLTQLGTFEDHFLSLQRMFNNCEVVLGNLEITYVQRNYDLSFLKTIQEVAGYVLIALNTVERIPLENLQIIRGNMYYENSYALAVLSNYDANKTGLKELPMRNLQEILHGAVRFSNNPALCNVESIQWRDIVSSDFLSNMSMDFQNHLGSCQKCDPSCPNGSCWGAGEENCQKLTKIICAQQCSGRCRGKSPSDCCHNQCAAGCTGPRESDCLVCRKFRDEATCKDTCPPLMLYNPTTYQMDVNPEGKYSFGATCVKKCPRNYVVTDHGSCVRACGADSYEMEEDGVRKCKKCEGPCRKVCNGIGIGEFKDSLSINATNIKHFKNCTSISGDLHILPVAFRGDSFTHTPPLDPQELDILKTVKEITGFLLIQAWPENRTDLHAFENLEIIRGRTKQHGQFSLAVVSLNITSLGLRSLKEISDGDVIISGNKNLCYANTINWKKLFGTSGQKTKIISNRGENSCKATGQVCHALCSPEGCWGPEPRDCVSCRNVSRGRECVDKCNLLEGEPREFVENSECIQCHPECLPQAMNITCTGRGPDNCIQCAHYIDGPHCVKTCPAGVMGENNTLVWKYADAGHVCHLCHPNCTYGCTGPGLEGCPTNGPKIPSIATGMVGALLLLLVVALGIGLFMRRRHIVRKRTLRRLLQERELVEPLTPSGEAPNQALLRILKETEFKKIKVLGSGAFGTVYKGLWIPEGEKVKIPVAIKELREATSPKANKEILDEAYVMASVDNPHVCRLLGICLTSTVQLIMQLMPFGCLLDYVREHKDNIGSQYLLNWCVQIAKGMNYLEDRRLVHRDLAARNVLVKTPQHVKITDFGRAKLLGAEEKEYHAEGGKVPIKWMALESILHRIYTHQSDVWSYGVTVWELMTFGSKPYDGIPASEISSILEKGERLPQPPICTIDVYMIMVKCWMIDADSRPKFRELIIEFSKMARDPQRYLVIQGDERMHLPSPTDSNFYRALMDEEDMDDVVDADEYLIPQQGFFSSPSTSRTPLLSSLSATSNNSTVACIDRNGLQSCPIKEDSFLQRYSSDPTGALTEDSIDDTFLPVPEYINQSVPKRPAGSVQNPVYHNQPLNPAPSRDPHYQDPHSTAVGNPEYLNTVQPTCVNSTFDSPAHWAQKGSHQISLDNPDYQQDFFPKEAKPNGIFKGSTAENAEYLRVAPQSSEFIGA
Method: (§3) Inhibition is indicated as […] [nM] (“−”=not measured). Compounds having an activity designated as “A” provided an IC50≤100 nM; compounds having an activity designated as “B” provided an 100 nM<IC50≤500 nM; compounds having an activity designated as “C” provided an 500 nM<IC50≤1000 nM; compounds having an activity designated as “D” provided an 1000 nM<IC50≤100000 nM; and compounds having an activity designated as “E” provided an IC50>10000 nM.

H1781 = H1781 CellTiter-Glo; format: cell-based; settings: NCI-H1781; 72 h compound incubation; read-out: H1781 CTG IC50
Method: 2. Measurement of Cellular Activity
The CellTiter-Glo Luminescent Cell Viability Assay (Promega) is a homogeneous method of determining the number of viable cells in culture. It is based on quantification of ATP, indicating the presence of metabolically active cells. Cells are seeded on day 1 at cell numbers that assure assay linearity and optimal signal intensity. After incubation for 24 h in humidified chambers at 37° C. and 5% CO2, compounds in DMSO are added at different concentrations. Cells are further incubated for 72 h at 37° C. and 5% CO2. Cells treated with the compound vehicle DMSO are used as positive controls and cells treated with 10 μM Staurosporine serve as negative controls. At day 5 the CellTiter Glo Reagent is prepared according to the instructions of the kit (Promega Inc.): Reagent is mixed 1:1 with cell culture medium. Thereon, mixture and assay plates are equilibrated at room temperature for 20 min. Equal volumes of the reagent-medium-mixture is added to the volume of culture medium present in each well. The plates are mixed at ˜200 rpm for 2 minutes on an orbital shaker. The microplates are then incubated at room temperature for 10 minutes for stabilization of the luminescent signal. Following incubation the luminescence is recorded on a Victor microplate reader (Perkin Elmer) using a 200 ms integration time. The data is then analyzed with Excel using the XLFIT Plugin (dose response Fit 205) for IC50-determination. As quality control the Z′-factor is calculated from 16 positive and negative control values. Only assay results showing a Z′-factor ≥0.5 are used for further analysis.
as §3

[3] = target: Her2 Exon 20 INSYVMA Ba/F3 (Homo sapiens, UniProt P04626, DUP772-775, cells depend on it); experiment: Her2 Exon 20 INSYVMA Ba/F3 CellTiter-Glo; format: cell-based; settings: CellTiter-Glo, 72 h, read-out: Her2 Exon 20 INSYVMA Ba/F3 CTG IC50
In short: as §1

H1975 = H1975 CellTiter-Glo; format: cell-based; settings: Homo sapiens, NCI-H1975; 72 h compound incubation; read-out: H1975 CTG IC50
In short: as §2

EGFR wt = EGFR wt (Homo sapiens, UniProt P00533); experiment: EGFR wt Lance assay; format: biochemical
Chain of EGFR wt (P00533 25-1210): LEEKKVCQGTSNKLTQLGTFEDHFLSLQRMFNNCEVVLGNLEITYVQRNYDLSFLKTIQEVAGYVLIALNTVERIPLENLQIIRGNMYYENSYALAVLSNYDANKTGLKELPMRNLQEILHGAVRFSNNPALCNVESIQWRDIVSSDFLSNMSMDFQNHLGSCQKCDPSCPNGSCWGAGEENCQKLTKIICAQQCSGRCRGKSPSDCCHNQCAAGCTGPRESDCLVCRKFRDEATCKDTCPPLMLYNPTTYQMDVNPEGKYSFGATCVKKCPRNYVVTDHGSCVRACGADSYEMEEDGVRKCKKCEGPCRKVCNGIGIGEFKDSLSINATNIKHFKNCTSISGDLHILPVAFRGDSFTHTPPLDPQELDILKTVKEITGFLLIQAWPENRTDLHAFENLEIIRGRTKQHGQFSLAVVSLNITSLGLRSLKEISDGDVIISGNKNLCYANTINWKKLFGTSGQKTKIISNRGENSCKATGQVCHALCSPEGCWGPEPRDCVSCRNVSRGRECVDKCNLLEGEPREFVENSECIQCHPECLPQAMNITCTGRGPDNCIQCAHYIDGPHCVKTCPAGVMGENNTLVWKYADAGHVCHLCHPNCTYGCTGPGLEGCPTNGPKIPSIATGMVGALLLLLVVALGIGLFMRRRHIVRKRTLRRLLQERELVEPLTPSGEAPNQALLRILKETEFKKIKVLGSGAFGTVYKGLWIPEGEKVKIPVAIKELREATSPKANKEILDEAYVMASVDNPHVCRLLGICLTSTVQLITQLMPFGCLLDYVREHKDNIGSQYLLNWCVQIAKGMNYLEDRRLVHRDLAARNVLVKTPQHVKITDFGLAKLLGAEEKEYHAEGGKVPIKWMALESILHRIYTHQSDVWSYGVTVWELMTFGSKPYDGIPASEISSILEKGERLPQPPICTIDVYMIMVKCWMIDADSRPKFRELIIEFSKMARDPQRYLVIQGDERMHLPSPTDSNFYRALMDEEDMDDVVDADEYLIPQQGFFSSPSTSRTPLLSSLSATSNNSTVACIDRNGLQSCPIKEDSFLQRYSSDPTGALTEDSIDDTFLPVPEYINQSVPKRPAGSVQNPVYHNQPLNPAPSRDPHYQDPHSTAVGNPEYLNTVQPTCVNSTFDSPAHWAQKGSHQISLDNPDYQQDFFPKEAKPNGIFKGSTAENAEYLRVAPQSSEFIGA
Method: as §3

T1 sequence (P04626 with tags, fused parts or gaps INS775YVMA): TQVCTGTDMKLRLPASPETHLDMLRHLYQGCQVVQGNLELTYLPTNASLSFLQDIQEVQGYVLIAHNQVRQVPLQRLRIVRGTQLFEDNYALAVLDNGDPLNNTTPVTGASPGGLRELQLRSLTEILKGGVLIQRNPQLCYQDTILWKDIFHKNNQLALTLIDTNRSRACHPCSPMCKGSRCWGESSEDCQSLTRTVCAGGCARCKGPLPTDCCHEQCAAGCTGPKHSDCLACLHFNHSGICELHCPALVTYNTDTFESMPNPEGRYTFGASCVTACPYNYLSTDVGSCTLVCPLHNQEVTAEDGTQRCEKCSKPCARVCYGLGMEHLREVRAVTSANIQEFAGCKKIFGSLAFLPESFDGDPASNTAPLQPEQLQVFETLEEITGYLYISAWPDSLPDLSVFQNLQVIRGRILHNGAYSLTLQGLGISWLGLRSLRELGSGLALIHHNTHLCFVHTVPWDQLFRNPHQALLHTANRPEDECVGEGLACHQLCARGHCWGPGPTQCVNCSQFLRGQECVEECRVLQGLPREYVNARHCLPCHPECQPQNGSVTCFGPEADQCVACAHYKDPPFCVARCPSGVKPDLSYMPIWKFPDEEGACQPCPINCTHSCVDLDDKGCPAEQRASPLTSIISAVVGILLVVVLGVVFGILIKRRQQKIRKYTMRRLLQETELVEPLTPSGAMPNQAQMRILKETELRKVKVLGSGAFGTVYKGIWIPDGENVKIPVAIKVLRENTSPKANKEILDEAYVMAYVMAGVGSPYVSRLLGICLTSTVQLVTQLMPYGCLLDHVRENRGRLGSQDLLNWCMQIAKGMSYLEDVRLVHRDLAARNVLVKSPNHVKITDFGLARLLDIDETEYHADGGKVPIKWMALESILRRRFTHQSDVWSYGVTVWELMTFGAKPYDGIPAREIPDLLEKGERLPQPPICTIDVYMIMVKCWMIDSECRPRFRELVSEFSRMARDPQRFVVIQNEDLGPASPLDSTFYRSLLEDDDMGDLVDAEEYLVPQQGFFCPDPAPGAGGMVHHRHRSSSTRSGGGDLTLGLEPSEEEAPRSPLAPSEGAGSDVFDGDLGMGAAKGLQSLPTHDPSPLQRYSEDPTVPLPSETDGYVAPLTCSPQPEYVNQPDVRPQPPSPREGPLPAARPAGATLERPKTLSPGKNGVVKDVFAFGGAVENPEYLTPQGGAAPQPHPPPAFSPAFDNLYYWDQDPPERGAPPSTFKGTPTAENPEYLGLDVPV

Row | Compound | IC50 (HER2 INS YVMA) [nM] | Stability in presence of mouse liver microsomes without cofactor NADPH [% remaining after 50 min] [1] [% remaining after 50 min] | GI50 [2] [nM] | IC50 (A431) [nM] | IC50 (EGFR T790ML858R) [nM] | IC50 (H1781) [nM] | GI50 [3] [nM] | IC50 (H1975) [nM] | IC50 (EGFR wt) [nM]
1 | C=CC(=O)Nc1cc(-c2c(-c3ccc(N4CCN(C(C)=O)CC4)cc3)[nH]c3nccc(Cl)c23)ccc1C [Example 8, N-(5-(2-(4-(4-acetylpiperazin-1-yl)phenyl)-4-chloro-1H-pyrrolo[2,3-b]pyridin-3-yl)-2-methylphenyl)acrylamide] | ≤ 100 | >99 | 100 to 500 | 100 to 500 | ≤ 100 | 100 to 500 | 100 to 500 | ≤ 100 | ≤ 100
2 | C=CC(=O)Nc1cc(-c2c(-c3cccc(N4CCN(C)CC4)c3)[nH]c3nccc(Cl)c23)ccc1C [Example 17, N-(5-(4-chloro-2-(3-(4-methylpiperazin-1-yl)phenyl)-1H-pyrrolo[2,3-b]pyridin-3-yl)-2-methylphenyl)acrylamide] | ≤ 100 | 90 | 100 to 500 | 100 to 500 | ≤ 100 | 100 to 500 | 100 to 500 | ≤ 100 | ≤ 100
3 | C=CC(=O)Nc1cc(-c2c(-c3ccc(CN4CCN(C)CC4)cc3)[nH]c3nccc(Cl)c23)ccc1C [Example 1, N-(5-(4-chloro-2-(4-((4-methylpiperazin-1-yl)methyl)phenyl)-1H-pyrrolo[2,3-b]pyridin-3-yl)-2-methylphenyl)acrylamide 2,2,2-trifluoroacetate] | ≤ 100 | >99 | ≤ 100 | 100 to 500 | ≤ 100 | 100 to 500 | 100 to 500 | ≤ 100 | ≤ 100
4 | C=CC(=O)Nc1cc(-c2c(-c3ccc(CN4CCOCC4)cc3)[nH]c3nccc(OC)c23)ccc1C [Example 75, N-(5-(4-methoxy-2-(4-(morpholinomethyl)phenyl)-1H-pyrrolo[2,3-b]pyridin-3-yl)-2-methylphenyl)acrylamide] | ≤ 100 | >99 | ≤ 100 | 100 to 500 | ≤ 100 | 100 to 500 | 100 to 500 | ≤ 100 | ≤ 100
5 | C=CC(=O)N1CCc2ccc(-c3c(-c4ccc(C5CCN(C)CC5)cc4)[nH]c4nccc(Cl)c34)cc21 [Example 55, 1-(6-(4-Chloro-2-(4-(1-methylpiperidin-4-yl)phenyl)-1H-pyrrolo[2,3-b]pyridin-3-yl)indolin-1-yl)prop-2-en-1-one 2,2,2-trifluoroacetate] | ≤ 100 | >99 | 500 to 1000 | 1000 to 100000 | ≤ 100 | 1000 to 100000 | 500 to 1000 | ≤ 100 | ≤ 100

The remaining lines, values ahead:

Row | IC50 (HER2 INS YVMA) [nM] | Stability in presence of mouse liver microsomes without cofactor NADPH [% remaining after 50 min] [1] [% remaining after 50 min] | GI50 [2] [nM] | IC50 (A431) [nM] | IC50 (EGFR T790ML858R) [nM] | IC50 (H1781) [nM] | GI50 [3] [nM] | IC50 (H1975) [nM] | IC50 (EGFR wt) [nM] | Compound
6 | ≤ 100 | >99 | 100 to 500 | 100 to 500 | ≤ 100 | 100 to 500 | 100 to 500 | ≤ 100 | ≤ 100 | C=CC(=O)Nc1cc(-c2c(-c3ccc(CCN(C)C)cc3)[nH]c3nccc(Cl)c23)ccc1C [Example 4, N-(5-(4-chloro-2-(4-(2-(dimethylamino)ethyl)phenyl)-1H-pyrrolo[2,3-b]pyridin-3-yl)-2-methylphenyl)acrylamide]
7 | ≤ 100 | >99 | 1000 to 10000 | 1000 to 100000 | ≤ 100 | 1000 to 100000 | 1000 to 10000 | 100 to 500 | ≤ 100 | C=CC(=O)N1CCc2ccc(-c3c(-c4ccc(N5CCN(C(C)=O)CC5)cc4)[nH]c4nccc(Cl)c34)cc21 [Example 58, 1-(6-(2-(4-(4-acetylpiperazin-1-yl)phenyl)-4-chloro-1H-pyrrolo[2,3-b]pyridin-3-yl)indolin-1-yl)prop-2-en-1-one]
8 | ≤ 100 | >99 | 100 to 500 | 100 to 500 | ≤ 100 | 100 to 500 | 100 to 500 | ≤ 100 | ≤ 100 | C=CC(=O)Nc1cc(-c2c(-c3ccc(CN4CCN(C)CC4)cc3)[nH]c3nccc(OC)c23)ccc1C [Example 77, N-(5-(4-methoxy-2-(4-((4-methylpiperazin-1-yl)methyl)phenyl)-1H-pyrrolo[2,3-b]pyridin-3-yl)-2-methylphenyl)acrylamide]
9 | ≤ 100 | >99 | 100 to 500 | 500 to 1000 | ≤ 100 | 500 to 1000 | 100 to 500 | ≤ 100 | ≤ 100 | C=CC(=O)Nc1cc(-c2c(-c3cccc(CN4CCN(C)CC4)c3)[nH]c3nccc(Cl)c23)ccc1C [Example 16, N-(5-(4-chloro-2-(3-((4-methylpiperazin-1-yl)methyl)phenyl)-1H-pyrrolo[2,3-b]pyridin-3-yl)-2-methylphenyl)acrylamide]
10 | ≤ 100 | >99 | 100 to 500 | 100 to 500 | ≤ 100 | 500 to 1000 | 100 to 500 | ≤ 100 | ≤ 100 | C=CC(=O)Nc1cc(-c2c(-c3cccc(OCCCN4CCN(CC)CC4)c3)[nH]c3nccc(Cl)c23)ccc1C [Example 25, N-(5-(4-chloro-2-(3-(3-(4-ethylpiperazin-1-yl)propoxy)phenyl)-1H-pyrrolo[2,3-b]pyridin-3-yl)-2-methylphenyl)acrylamide]
11 | ≤ 100 | >99 | 100 to 500 | 100 to 500 | ≤ 100 | 500 to 1000 | 100 to 500 | ≤ 100 | ≤ 100 | C=CC(=O)Nc1cc(-c2c(-c3ccc(C4CCN(C)CC4)cc3)[nH]c3ncccc23)ccc1C [Example 79, N-(2-methyl-5-(2-(4-(1-methylpiperidin-4-yl)phenyl)-1H-pyrrolo[2,3-b]pyridin-3-yl)phenyl)acrylamide]

— patent publication US20220370440A1 (Lead Discovery Center GmbH, priority 2018, published 2022)
